{
  "source": "paper PMC10289085",
  "about": "“The cytotoxicity effect of 7-hydroxy-3,4-dihydrocadalene from Heterotheca inuloides and semisynthetic cadalenes derivates towards breast cancer cells: involvement of oxidative stress-mediated apoptosis” (PeerJ, 2023)",
  "key": {"[1]": {"tested_on": "MCF7 human breast cancer cells", "test": "MTT assay: cell viability", "format": "cell-based", "settings": "for MCF7 cell viability: 0.1 to 100 µM, 24, 48 and 72 h; for IC50: MCF7, MTT", "protocol": "MCF7 (#HTB-22) cell line, derived from human breast adenocarcinoma, was obtained from the American Type Culture Collection (ATCC®, Manassas, VA, USA). It was maintained under standard conditions: RPMI-1640, 2.0 g/L NaHCO3, supplemented with 10% FBS and gentamicin […].\n(§1) Cells were treated with isolated compounds (0.1, 1, 5, 10, 25, 50 and 100 µM) for 24, 48 and 72 h. After treatments, culture media was replaced by MTT (100 μL) dissolved in RPMI media (0.33 mg/mL final concentration) per well and incubated at 37 °C with 5% CO2 for 1 h in dark. After incubating, supernatant was removed and replaced with DMSO to dissolve formazan crystals. Absorbance value was measured in a microplate reader (SPECTROstar Nano; BMG Labtech, Ortenberg, Germany) at 570 nm. IC25 and IC50 values were determined using GraphPad Prism 7.00 (GraphPad Software, La Jolla, CA, USA). Percentage of cell viability was calculated in comparison with control cells ([Mosmann, 1983])."}, "caspase-9": {"tested_on": "caspase-9", "test": "Caspase-9 activity assay (fluorometric, cell lysates)", "format": "cell-based, human", "settings": "MCF7, 48 h; for Caspase 9 activity compared to control cells: compound at IC50, H2O2 1.0 mM", "protocol": "(§2) Mechanical scraping was employed to collect adherent MCF7 cells after treatments. Then, cells were centrifugated (1,500 rpm for 5 min at 37 °C) and supernatants were removed. Pellets were lyzed adding lysis buffer (25 mM TrisHCl, pH 7.4, 150 mM NaCl, 1 mM EDTA, 0.1% Triton X-100, 1 mg/mL leupeptin, 0.5 mM PMSF and 1 mg/mL pepstatin) and put on ice for 20 min. Finally, cell lysates were centrifugated (2,500 rpm for 10 min at 4 °C) and supernatants were collected to following assays.\n(§3) Fluorometric assays of caspase-3 and caspase-9 enzymes were performed in accordance with the instructions provided by ALEXIS Biochemicals kits (Enzo Life Sciences Inc., San Diego, CA, USA). This enzymatic assay was based on hydrolysis of the peptide substrates of caspases-3/9 (Ac-DEVD 20 μM and Ac-LEHD 20 μM, respectively) conjugated to a fluorochrome (7-amido-4-methylcoumarin or AMC) at the terminal carbon of Asp, resulting in the release of the fluorescent motif. Cell lysates (20 μg) were used for each treatment. After incubation for 1 h at 37 °C, fluorescence was determined using a FLx800 microplate reader at excitation and emission wavelengths of 380 and 460 nm, respectively."}, "HEK 293 cells": {"tested_on": "HEK 293 cells", "test": "MTT assay: cell viability in non-tumoral control cells", "format": "cell-based, human", "settings": "non-tumoral cells from kidney, 72 h", "protocol": "HEK 293 (CRL-1573) cell line, human embryonic kidney, was obtained from ATCC® (Manassas, VA, USA). It was grown in DMEM medium (Caisson Laboratories, Inc., Smithfield, UT, USA) with 10% v/v phenol red of inactivated FBS, 44 mM NaHCO3, 1 mM sodium pyruvate and penicillin 100 I.U.−100 μg/mL streptomycin−25 ng/mL amphotericin B, pH 7.4. Both cell lines were incubated at 37 °C and 5% CO2.\nas §1"}, "[2]": {"tested_on": "mitochondrial respiration of MCF7 cells", "test": "Cell respirometry (high resolution, O2k)", "format": "cell-based, human", "settings": "MCF7, IC50, 48 h", "protocol": "The oxygen consumption experiments were performed using a high resolution respirometry equipment O2k meter (Oroboros Instruments, Innsbruck, Austria) described by [Aparicio-Trejo et al. (2019)]. The respiratory parameters were defined as: (A) Routine respiration, corresponding to oxygen consumption in presence only of cells in culture medium. (B) Leak of the respiration, corresponding to cellular oxygen consumption in presence of 15 μM oligomycin. (C) RCI corresponding to the ratio basal/leak. (D) Respiration attributable to OXPHOS (P) corresponding to: Routine-Leak. All parameters were corrected by subtracting non-mitochondrial respiration resulting from the addition of 15 μM rotenone and 15 μM antimycin A and normalized by cells number."}, "caspase-3": {"tested_on": "caspase-3", "test": "Caspase-3 activity assay (fluorometric, cell lysates)", "format": "cell-based, human", "settings": "MCF7, 48 h", "protocol": "as §2, §3"}, "MCF7 cells [3]": {"tested_on": "MCF7 cells", "test": "Cell morphology (Cytation 5 imaging)", "format": "cell-based, human", "settings": "MCF7, 48 h; compound at IC50, H2O2 1 mM"}, "MCF7 cells [4]": {"tested_on": "MCF7 cells", "test": "Wound-healing assay: cell migration", "format": "cell-based, human", "settings": "IC50 (55.24 μM), 24, 48 and 72 h", "protocol": "Wound areas were monitored at four different times (0, 24, 48, and 72 h) using the Cytation 5 cell imager (BioTek Instruments, Inc., Winooski, VT, USA). To determine the migration rate of the cells, the wound areas were quantified using the ImageJ software, ([Schneider, Rasband & Eliceiri, 2012]). The variation between the percentage of cell migration (as a function of time) was calculated using the following formula:\n%Migration=100−[(Areaofinjurytimet/Areaofinjurytimezero)(100)]"}, "Bcl-2": {"tested_on": "Bcl-2", "test": "Immunoblotting of Bcl-2", "format": "cell-based, human", "settings": "MCF7, 48 h, IC50 and IC50/2", "protocol": "(§4) Western blot assays were performed using standard techniques. Primary antibodies were anti-caspase-3, Bcl-2 and GAPDH from Santa Cruz Biotechnology (Santa Cruz Biotechnology, Inc., Dallas, TX, USA). The secondary antibody was anti-rabbit IgG, HRP-linked (Antibody #7074; Cell Signaling Technology, Danvers, MA, USA)."}, "MCF7 cell line": {"tested_on": "MCF7 cell line", "parameters": "method as in Rodríguez-Chávez et al. (2015b)", "settings": "ref Rodríguez-Chávez et al. (2015b); cited from earlier work"}, "[5]": {"tested_on": "intracellular ROS in MCF7 cells", "test": "DCFH-DA assay: intracellular ROS detection", "format": "cell-based, human", "settings": "compound at IC50 concentration, H2O2 1 mM", "protocol": "Intracellular ROS were detected by fluorescent compound DCFH-DA. Cells were treated with 1.0 mM H2O2, IC50 (55.2 μM) and IC50/2 (27.6 μM) of 7-hydroxy-3,4-dihydrocadalene for 48 h. Then, culture media was replaced with DCFH-DA (20 μM dissolved in glucose 1.8 mg/mL PBS) per well and incubated in the dark for 30 min. DCF fluorescence intensity was measured using an FLx800 microplate fluorescence reader (Bio-Tek Instruments, Inc., Winooski, VT, USA) at 480 and 530 nm excitation and emission wavelengths, respectively ([LeBel, Ischiropoulos & Bondy, 1992])."}, "caspase 3": {"tested_on": "caspase 3", "test": "Immunoblotting of caspase 3", "format": "cell-based, human", "settings": "MCF7, 48 h; compound at IC50 concentration, H2O2 1.0 mM", "protocol": "as §4"}, "[6]": {"tested_on": "lipid peroxidation in MCF7 cells", "test": "TBARS assay: lipid peroxidation", "format": "cell-based, human", "settings": "MCF7, 48 h", "protocol": "as §2\nTotal protein concentrations were measured as described by [Smith et al. (1985)]. BCA/CuSO4 reactive solution (1:20) was added to each cell lysates and incubated in the dark for 30 min at 37 °C. Absorbance was measured with a SPECTROstar Nano microplate reader (BMG Labtech, Ortenberg, Germany) at a wavelength of 550 nm.\nLipid peroxidation was measured colorimetrically as described by [Uchiyama & Mihara (1978)]. Cell pellets, stored at −80 °C, were thawed at room temperature and then, they were homogenized in thiobarbituric acid reactive substances (TBARS) solution (28.2 mM 2-TBA in 18.5 mL of TCA 16%-HCl 0.27 N). Then, the mixtures were heated for 10 min at 100 °C, and subsequently cooled in ice to stop the reaction. Supernatants of each sample were separated by centrifugation (3,000 rpm for 10 min at 4 °C) and immediately loaded into a SPECTROstar Nano microplate reader (BMG Labtech, Ortenberg, Germany) for absorbance measurement at 530 nm. TBARS values were expressed as nmol/mg protein."}, "MCF7 cells [7]": {"tested_on": "MCF7 cells", "test": "Trypan blue dye exclusion assay: cell proliferation", "format": "cell-based, human", "settings": "IC50 (55.24 μM)", "protocol": "Cells were trypsinized, centrifuged and stained with trypan blue dye (0.4% w/v in PBS). The number of viable cells and dead cells were counted on a Neubauer hemocytometer under an inverted microscope. The percentage of cell proliferation was calculated by comparing with control cells."}, "[8]": {"settings": "compound at IC50 concentration, H2O2 1.0 mM"}},
  "note": "“Also recorded” adds a separate entry of the source.",
  "data": [
    {"compound": "CC1=CC[C@H](C(C)C)c2cc(C)c(OC(=O)Nc3ccccc3)cc21", "note": "[7-(phenylcarbamate)-3,4-dihydrocadalene]", "values": [
      {"measurement": "MCF7 cell viability", "setting": "[1]; MTT", "value": "did not show a clear trend of MCF7 cell viability reduction; also recorded: lower or null cytotoxic potential; also recorded: not cytotoxic"}
    ]},
    {"compound": "Cc1cc2c(C(C)C)ccc(C)c2cc1OC(=O)Nc1ccccc1", "note": "[7-(phenylcarbamate)-cadalene]", "values": [
      {"measurement": "MCF7 cell viability", "setting": "[1]; MTT", "value": "lower or null cytotoxic potential; also recorded: not cytotoxic"},
      {"measurement": "MCF7 cell growth", "setting": "[1]; MTT, 10 and 50 µM at 72 h of exposure", "value": "slightly inhibited MCF7 cell growth"}
    ]},
    {"compound": "CC1=CC[C@H](C(C)C)c2cc(C)c(O)cc21", "note": "[7-hydroxy-3,4-dihydrocadalene]", "values": [
      {"measurement": "Caspase 9 activity", "setting": "caspase-9; IC50/2 concentration", "value": "no effect"},
      {"measurement": "Caspase 9 activity compared to control cells", "setting": "caspase-9", "value": 118.42, "unit": "%"},
      {"measurement": "Effect on HEK 293 cell viability", "setting": "HEK 293 cells", "value": "without effect"},
      {"measurement": "RCI", "setting": "[2]", "value": "slightly reduction"},
      {"measurement": "Caspase 3 activity", "setting": "caspase-3; IC50/2 concentration", "value": "no effect"},
      {"measurement": "IC50", "setting": "[1]; Homo sapiens, 48 h", "value": 55.2, "unit": "µM"},
      {"measurement": "IC50", "setting": "[1]; Homo sapiens, 72 h", "value": 52.8, "unit": "µM"},
      {"measurement": "MCF7 cell viability", "setting": "[1]; MTT", "value": "reduced MCF7 cell viability in a concentration and time-dependent manner"},
      {"measurement": "Cell morphology", "setting": "MCF7 cells [3]", "value": "morphological changes (cells are rounded off, adhesion capacity decreases, and membrane is blebbing) were observed"},
      {"measurement": "MCF7 migration", "setting": "MCF7 cells [4]", "value": "significantly inhibits MCF7 migration"},
      {"measurement": "Bcl-2 levels (Western blot)", "setting": "Bcl-2", "value": "Slightly differences of Bcl-2 levels were observed but not significant"},
      {"measurement": "IC50", "setting": "MCF7 cell line", "value": 61.4, "unit": "µM"},
      {"measurement": "Intracellular ROS levels compared to control cells", "setting": "[5]", "value": 182, "unit": "%"},
      {"measurement": "Expression of caspase 3 (Western blot)", "setting": "caspase 3", "value": "more evident"},
      {"measurement": "Lipid peroxidation levels (TBARS)", "setting": "[6]; IC50/2", "value": 0.23, "unit": "nmol/mg protein"},
      {"measurement": "Lipid peroxidation levels (TBARS)", "setting": "[6]; [8]", "value": 0.52, "unit": "nmol/mg protein"},
      {"measurement": "Cell proliferation", "setting": "MCF7 cells [7]", "value": "significantly reduced cell proliferation in a concentration and time dependent manner"}
    ]},
    {"compound": "CC/C(=C(\\c1ccc(O)cc1)c1ccc(OCCN(C)C)cc1)c1ccccc1", "note": "[(Z)-4-hydroxytamoxifen, reference compound]", "values": [
      {"measurement": "IC50", "setting": "[1]; 24 h, positive control", "value": 16.5, "unit": "µM"}
    ]},
    {"compound": "OO", "note": "[H2O2, hydrogen peroxide, reference compound]", "values": [
      {"measurement": "Caspase 9 activity compared to control cells", "setting": "caspase-9", "value": 115.08, "unit": "%"},
      {"measurement": "Caspase 3 activity compared to control cells", "setting": "caspase-3; compound at IC50, H2O2 1.0 mM", "value": 136.25, "unit": "%"},
      {"measurement": "Cell morphology", "setting": "MCF7 cells [3]", "value": "morphological changes (cells are rounded off, adhesion capacity decreases, and membrane is blebbing) were observed"},
      {"measurement": "Intracellular ROS levels compared to control cells", "setting": "[5]", "value": 194.9, "unit": "%"},
      {"measurement": "Expression of caspase 3 (Western blot)", "setting": "caspase 3", "value": "increased"},
      {"measurement": "Lipid peroxidation levels (TBARS)", "setting": "[6]; [8]", "value": 0.24, "unit": "nmol/mg protein"}
    ]}
  ]
}
